# Source: ChEMBL document CHEMBL3507680, “University of Dundee, Gates Library screen for HepG2 cell viability”
# Test: Human HepG2 cell viability assay in 384 well format
# Type: toxicity, cell-based
# Design: dose 125 nL, time 70.5 hour; cytotoxicity at 70.5 h: concentration not given beside the values
# Details: HepG2 cells, read-out: Inhibition
row,SMILES,cytotoxicity at 70.5 h
1,C=C(C)CSc1nnc(CCNC(=O)OC(C)(C)C)o1,-12.3%
2,OC[C@@H]1[C@@H](c2ccccc2)CN2CCN(c3ccccn3)C[C@H]12,-3.64%
3,OC[C@@H]1[C@H]2CN(c3ccccn3)CCN2C[C@H]1c1ccccc1,-1.78%
4,O=S1(=O)N(c2ccccc2)C[C@H](O)[C@]12CCNC2,-2.92%
5,CN1CC[C@H](N(Cc2ccccc2)CC2CC2)C[C@H](O)C1,9.84%
6,CN1C[C@H](O)[C@]2(CCN(C(=O)NCc3ccccc3)C2)S1(=O)=O,-8.64%
7,O=S1(=O)[C@@H](c2ccccc2)[C@H](CO)CN1c1ccccc1,-4.62%
8,CC(C)N1C[C@@H](CO)[C@H](c2ccccc2)S1(=O)=O,-3.46%
9,CCCC(O)CN1CCC(=O)N(CC2CC2)Cc2cc3c(cc21)OCO3 (centres undefined),25%
10,CN1Cc2cc(F)ccc2N(CC(C)(C)O)CCC1=O,8.74%
11,O=C(Cc1ccccc1)N1CC(=O)N(Cc2ccco2)CC(O)C1 (centres undefined),0.111%
12,Cc1ccc(C(=O)N2CC(=O)N(Cc3ccco3)CC(O)C2)cc1 (centres undefined),-2.64%
13,CC(C)CN1CC(O)CN(S(=O)(=O)c2ccc(F)cc2)CC1=O (centres undefined),-9.29%
14,CC(C)(C)C(=O)N1CC(=O)N(Cc2ccco2)CC(O)C1 (centres undefined),-4.89%
15,CC(C)CC(=O)N1CC(=O)N(Cc2ccco2)CC(O)C1 (centres undefined),8.54%
16,CCCC1CN(CCOC)C(=O)c2cccnc2O1 (centres undefined),-8.12%
17,CCOC(=O)N1[C@@H](c2ccco2)[C@@H](C(=O)NC)C[C@]12CCCCNC2=O,15.2%
18,CC(C)(C)CC(=O)N1[C@@H](c2ccco2)[C@@H](CO)C[C@]12CCCCNC2=O,-5.67%
19,CCOC(=O)CN1C(=O)CN(S(C)(=O)=O)CCC(OC)c2ccccc21 (centres undefined),-8.31%
20,CNC(=O)CN1C(=O)CN(C(=O)COC)CCC(OC)c2ccccc21 (centres undefined),15.1%
21,OCC1N(Cc2ccc(F)cc2)[C@H]2CC[C@]1(O)CC2 (some centres undefined),-7.04%
22,O=C(c1ccco1)N1C(CO)[C@]2(O)CC[C@H]1CC2 (some centres undefined),-3.21%

row,SMILES,cytotoxicity at 70.5 h
1,O=C(Nc1ccccc1)N1C(CO)[C@]2(O)CC[C@H]1CC2 (some centres undefined),15%
2,COCC1N(C(=O)c2ccco2)[C@H]2CC[C@]1(O)CC2 (some centres undefined),-2.24%
3,COCC1N(C(=O)Nc2ccccc2)[C@H]2CC[C@]1(O)CC2 (some centres undefined),-7.67%
4,COCC1N(S(=O)(=O)c2cn(C)cn2)[C@H]2CC[C@]1(O)CC2 (some centres undefined),-7.28%
5,CCOC(=O)C1CC2(CCCCC2)N2CCC(=O)N12 (centres undefined),-4.11%
6,O[C@]12CC[C@H](CC1)N(Cc1ccc(F)cc1)C2CN1CCOCC1 (some centres undefined),-7.54%
7,O=S(=O)(c1ccccc1)N1C(CN2CCOCC2)[C@]2(O)CC[C@H]1CC2 (some centres undefined),16.5%
8,O=C1CCNc2ncc(-c3ccc(Cl)cc3)cc2CN1C1CC1,-8.11%
9,CCOC(=O)[C@@H]1[C@@H](c2ccccc2)CN2CCN(C(C)=O)C[C@H]12,-4.08%
10,CCOC(=O)[C@@H]1[C@@H](c2ccccc2)CN2CCN(C(=O)C3CC3)C[C@H]12,16.5%
11,CO[C@@H]1CN(C)S(=O)(=O)[C@@]12CCN(Cc1ccccc1)C2,-7.27%
12,CO[C@@H]1CN(c2ccccc2)S(=O)(=O)[C@@]12CCN(C)C2,-7.99%
13,COC(=O)N1CC[C@@]2(C1)[C@H](OC)CN(c1ccccc1)S2(=O)=O,-11.4%
14,CO[C@@H]1CN(c2ccccc2)S(=O)(=O)[C@@]12CCN(S(C)(=O)=O)C2,15.4%
15,COCC(O)CN1CCC(=O)N(Cc2ccccc2)Cc2ccccc21 (centres undefined),-5.42%
16,COCC(O)CN1CCC(=O)N(CC(=O)C(C)(C)C)Cc2ccccc21 (centres undefined),-4.8%
17,COCCN1CC(O)CN(C(=O)c2cccc(C(F)(F)F)c2)CC1=O (centres undefined),-0.767%
18,COc1ccc(CN2CC(O)CN(C(=O)c3ccccc3)CC2=O)cc1 (centres undefined),7.16%
19,COc1ccc(CN2CC(O)CN(C(=O)C3CCC3)CC2=O)cc1 (centres undefined),-0.603%
20,Cc1ccc(C(=O)N2CC(=O)N(Cc3cccs3)CC(O)C2)cc1 (centres undefined),-0.413%
21,CSc1ccc(C(=O)N2CC(=O)N(Cc3ccccc3)CC(O)C2)cc1 (centres undefined),0.216%
22,COc1ccc(C(=O)N2CC(=O)N(C3CCC3)CC(O)C2)c(OC)c1 (centres undefined),-1.09%

row,SMILES,cytotoxicity at 70.5 h
1,O=C(c1cccc(C(F)(F)F)c1)N1CC(=O)N(C2CCC2)CC(O)C1 (centres undefined),-7.16%
2,COc1ccc(C(=O)N2CC(=O)N(CC3CC3)CC(O)C2)cc1 (centres undefined),-4%
3,COc1ccccc1C(=O)N1CC(=O)N(CC2CC2)CC(O)C1 (centres undefined),-0.352%
4,CCOC(=O)N1CCC(OC)c2ccccc2N(CC(=O)NC)C(=O)C1 (centres undefined),-3.27%
5,COCCOC(=O)N1CCN2C[C@@H](CO)[C@H](c3ccccc3)[C@H]2C1,0.912%
6,COC(=O)N1CCN2C[C@H](CO)[C@@H](c3ccccc3)[C@H]2C1,-4.89%
7,COc1ccc2c3c1CN(C(C)=O)CC3=CC(C)(C)CO2,0.846%
8,CCNC(=O)N1CC2=CC(C)(C)COc3ccc(OC)c(c32)C1,-6.22%
9,CC(C)CC(=O)N1CC(=O)N(CCc2ccccc2)CC(O)C1 (centres undefined),24%
10,CCS(=O)(=O)N1CC(=O)N(Cc2ccccc2OC)CC(O)C1 (centres undefined),17.6%
11,CCCS(=O)(=O)N1CC(=O)N(Cc2cccc(OC)c2OC)CC(O)C1 (centres undefined),9.04%
12,COc1cccc(CN2CC(O)CN(S(C)(=O)=O)CC2=O)c1OC (centres undefined),4.13%
13,CCOC(=O)N1CC(=O)N(Cc2cccc(OC)c2OC)CC(O)C1 (centres undefined),-5.06%
14,COC1CN(C(=O)OCC(C)C)CCC(=O)N(C)c2ccccc21 (centres undefined),-4.55%
15,COC1CN(C(=O)Nc2ccccc2)CCC(=O)N(C)c2ccccc21 (centres undefined),-0.759%
16,COC1CN(C(=O)Cc2cccs2)CCC(=O)N(C)c2ccccc21 (centres undefined),2.17%
17,CC(=O)N1CCC(=O)N(C2CCCC2)Cc2ccccc21,7.97%
18,COCC(=O)N1CCC(=O)N(C2CCCC2)Cc2ccccc21,6.82%
19,Cc1nc2ccn(C(C)C)c(=O)c2cc1C(=O)O,-24.7%
20,CC(C)Cc1cc(C(=O)O)nc2[nH]c(=O)[nH]c(=O)c12,-14.3%
21,O=C(O)CCn1ccc(=O)c2ccccc21,-3.76%
22,O=C(O)CCC(=O)N1CCC(c2noc3cc(F)ccc23)CC1,-10.8%

row,SMILES,cytotoxicity at 70.5 h
1,O=C(O)Cn1ccc(=O)c2cc(F)ccc21,-10.1%
2,Cc1nc(Oc2ccccc2F)sc1C(=O)O,-11.4%
3,Cc1cccc(S(=O)(=O)N2C[C@H]3C[C@H](C(=O)NC4CCC4)[C@@H](C2)O3)c1,-10.5%
4,CC(C)NC(=O)C1CCC2(CCN(c3ncccn3)CC2)CO1 (centres undefined),-9.99%
5,CCC(C)N1CCc2c(C(=O)N(C)Cc3ccccn3)nn(C)c2C1 (centres undefined),-7.34%
6,Cc1cccc(S(=O)(=O)N2C[C@H]3C[C@H](C(=O)NCC4CC4)[C@@H](C2)O3)c1,-0.444%
7,Cc1cccc(S(=O)(=O)N2C[C@H]3C[C@H](C(=O)N(C)C)[C@@H](C2)O3)c1,1.15%
8,CC(=O)NCc1noc2c1CN(Cc1cnn(C)c1)CC2,2.69%
9,COCC(=O)N1CCC2(CC1)CC(OC)CO2 (centres undefined),-7.5%
10,CCNC(=O)c1ccc2ccc(N(CC)CC)n2c1,-8.54%
11,Cn1cc(-c2cnc3n2CCC32CCN(S(C)(=O)=O)CC2)cn1,-0.823%
12,Cc1cc(CN(C)C2CCCN(Cc3noc(C4CC4)n3)C2)on1 (centres undefined),-9.71%
13,CC(C(=O)NCCN1CCCCC1)n1cncn1 (centres undefined),-12.5%
14,Cn1cnc2c1CCN(Cc1csc(Cc3ccccc3)n1)C2,-9.86%
15,CC(C)c1cc(NC(=O)CN2CCCC2Cn2cncn2)on1 (centres undefined),-9.97%
16,CCc1ncncc1C(=O)N1CCCN(Cc2ccc(C#N)cc2)CC1,-10.9%
17,Cc1noc(CN(C)C2CCCN(Cc3noc(C4CC4)n3)C2)n1 (centres undefined),-10.7%
18,O=C(Cc1cccc(F)c1)NCCNc1ncccn1,-4.32%
19,CNS(=O)(=O)c1ccc(C)c(C(=O)NCCNc2ncccn2)c1,-14.9%
20,CC(C(=O)NCCCN1CCN(c2ccccc2)CC1)n1cncn1 (centres undefined),-15.9%
21,CN(Cc1cccc(F)c1)Cc1nc2c(cnn2C)c(=O)[nH]1,5.31%
22,CCC(C)NC(=O)CCc1ccc(OCC(F)(F)F)c(OC)c1 (centres undefined),-14.7%

row,SMILES,cytotoxicity at 70.5 h
1,COc1cc(CCC(=O)NC2CCN(C)CC2)ccc1OCC(F)(F)F,-7.75%
2,CCC(C)(C)NC(=O)CN1C=Nc2ccccc2S1(=O)=O,-5.89%
3,CC(C)CCC(C)NC(=O)CN1C=Nc2ccccc2S1(=O)=O (centres undefined),-8.83%
4,COc1cc(CCC(=O)NC(C)(C)C)ccc1OCC(F)(F)F,-9.72%
5,CC(C(=O)NCCN1CCOCC1)n1cncn1 (centres undefined),-11.7%
6,Cc1cc(NC(=O)CN2CCCCC2Cn2nc(C)nc2C)on1 (centres undefined),-8.71%
7,Cc1cnn(C2CN(CC(=O)NCCc3cccs3)C2)c1,-12.3%
8,Cn1c(C2CC2)nc2c1CCN(Cc1nc(Cc3ccccc3)no1)C2,-12.9%
9,O=C(C1CC=CC1)N1CCC2(CC1)CNCCO2,-5.99%
10,CC(C)NC(=O)[C@@H]1CC[C@@H]2[C@@H](CCN2Cc2ccc3ccccc3n2)O1,-8.11%
11,CCC(C)N1Cc2c(C(=O)N3CCCC3)nn(C)c2C1 (centres undefined),-2.34%
12,Cc1ccc(NC2COC3(CCN(CC(C)C)CC3)C2)nn1 (centres undefined),27.8%
13,CN1CCc2ncc(CNc3cc(N(C)C)ncn3)n2CC1,-11.9%
14,CCS(=O)(=O)N1CCC2(CCC(N3CCCC3)c3ccccc32)CC1 (centres undefined),-10.6%
15,OCCOCc1nnn2c1CN(c1ncccn1)CCC2,8.18%
16,CC(C)CCN1Cc2c(C(=O)N3CCCC3)nn(C)c2C1,15%
17,CC(=O)NCc1noc2c1CN(CCN1CCCC1)CC2,-8.27%
18,Cc1cncc(C(=O)N2CC[C@@H]3[C@H]2CCC(=O)N3CCN(C)C)c1,2.21%
19,CN(C)CCN1CCO[C@H]2CCN(C(=O)c3cccs3)CC[C@@H]21,32.1%
20,CN(Cc1ccccn1)C(=O)c1nn(C)c2c1CCN(CC1CC1)C2,-1.96%
21,CN1CCN(C2COC3(CCN(CC4CC4)CC3)C2)CC1 (centres undefined),0.151%
